Test results reported in publication PMC12368479, “Inhibition of the Clathrin Terminal Domain—Amphiphysin Protein–Protein Interaction. Probing the Pitstop 2 Aromatic Moiety” (Chemmedchem, 2025).
Where two headings read alike, the source gives them in different places.

Key:
[1] = biological target: T1, full length human Dynamin I (Homo sapiens, UniProt Q05193); assay: Dynamin GTPase activity, Malachite Green phosphate detection assay; assay type: biochemical; conditions: '–' = not active at 100 μM
T1 construct: full length human Dynamin I expressed in Sf21 insect cells; made in house; host or cells: Sf21 insect cells
T1 sequence (Q05193 1-864): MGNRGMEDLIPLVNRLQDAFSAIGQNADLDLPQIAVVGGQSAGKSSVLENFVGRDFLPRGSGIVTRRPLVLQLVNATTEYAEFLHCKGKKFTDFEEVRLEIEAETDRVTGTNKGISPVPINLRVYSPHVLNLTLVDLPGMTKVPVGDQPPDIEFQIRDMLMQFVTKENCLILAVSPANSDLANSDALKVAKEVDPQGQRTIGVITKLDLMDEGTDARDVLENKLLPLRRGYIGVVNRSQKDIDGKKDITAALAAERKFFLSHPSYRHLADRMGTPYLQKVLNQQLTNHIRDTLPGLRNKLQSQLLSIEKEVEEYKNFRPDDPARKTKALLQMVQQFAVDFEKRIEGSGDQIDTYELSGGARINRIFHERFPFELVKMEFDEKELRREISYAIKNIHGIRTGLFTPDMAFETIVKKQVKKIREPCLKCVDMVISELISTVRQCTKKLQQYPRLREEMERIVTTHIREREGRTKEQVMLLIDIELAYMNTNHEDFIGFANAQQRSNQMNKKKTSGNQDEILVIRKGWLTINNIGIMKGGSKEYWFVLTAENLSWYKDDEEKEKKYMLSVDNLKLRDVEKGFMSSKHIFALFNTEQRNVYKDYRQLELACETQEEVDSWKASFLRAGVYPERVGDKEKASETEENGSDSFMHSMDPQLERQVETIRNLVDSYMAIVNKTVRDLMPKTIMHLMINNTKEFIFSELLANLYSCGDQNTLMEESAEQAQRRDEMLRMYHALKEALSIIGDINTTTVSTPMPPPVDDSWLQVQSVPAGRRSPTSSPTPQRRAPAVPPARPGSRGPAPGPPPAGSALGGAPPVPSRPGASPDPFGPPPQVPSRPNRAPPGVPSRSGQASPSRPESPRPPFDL
Description: Dynamin GTPase activity was determined in vitro using the Malachite Green phosphate detection absorbance‐based assay within a 96‐well plate format as described previously. The enzyme source was full length human Dynamin I expressed in Sf21 insect cells and affinity‐purified on GST‐Amph2‐SH3 (rat Amphiphysin 2 (494–588)).^[ [56] ^]

[2] = biological target: T2, clathrin heavy chain NTD (amino acids 1–364) – amphiphysin 1 B/C domain protein–protein interaction (NTD‐PPI) (Homo sapiens, UniProt Q00610); assay: ELISA-based clathrin inhibitor binding assay (NTD-PPI)
T2 construct: GST‐tagged clathrin heavy chain NTD (amino acids 1–364); made in house
T2 sequence (Q00610 1-364): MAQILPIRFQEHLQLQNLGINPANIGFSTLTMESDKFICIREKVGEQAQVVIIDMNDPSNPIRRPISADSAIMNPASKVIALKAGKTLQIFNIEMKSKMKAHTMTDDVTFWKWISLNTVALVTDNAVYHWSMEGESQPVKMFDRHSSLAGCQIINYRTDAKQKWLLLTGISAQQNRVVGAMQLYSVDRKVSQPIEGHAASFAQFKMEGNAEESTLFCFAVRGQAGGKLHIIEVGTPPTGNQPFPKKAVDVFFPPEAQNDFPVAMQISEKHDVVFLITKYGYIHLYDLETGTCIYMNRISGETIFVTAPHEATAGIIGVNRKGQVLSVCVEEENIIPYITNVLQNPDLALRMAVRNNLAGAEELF
Description: The clathrin inhibitor assay was based inhibition of protein–protein interaction (PPI) between clathrin and amphiphysin as described in our previous report.^[ [45], [54] ^] Bacterially expressed recombinant purified His6‐tagged amphiphysin 1 B/C domain (which comprises both the clathrin and the AP‐2 binding sites, amino acids 250‐578^[ [55] ^]) in screening buffer (20 mM HEPES, pH 7.4, 50 mM NaCl, 1 mM DTT, 1 mM PMSF) was added to a 384 well ELISA plate (Corning Maxisorp 3700) and bound to the plastic for 1 h at room temperature. […] Following extensive washes (with 20 mM HEPES, pH 7.4, 50 mM NaCl, 0.05% Tween 20), chemical compounds diluted in DMSO (10 μL) were added and incubated together with bacterially expressed recombinant GST‐tagged clathrin heavy chain NTD (amino acids 1–364) for 1 h at room temperature in screening buffer. After 3 washes, horseradish peroxidase‐coupled anti‐GST antibodies were added in screening buffer and the plate incubated for 40 min at room temperature. Following additional washes, 50 μL TMB (3,3′,5,5′‐tetramethylbenzidine) (Pierce Biotechnology) chromogenic substrate of horseradish peroxidase was added, and the plate was incubated for 10 min before the reaction was terminated by adding 50 μL 1N sulfuric acid to produce a yellow colour. The amount of bound protein was determined by spectrophotometric measurement in a plate reader. Relative binding was calculated as a percentage of DMSO control.

[3] = test system: transferrin uptake (CME) in U2OS osteosarcoma cells; assay: Clathrin-mediated endocytosis assay: transferrin (Tfn) uptake in U2OS cells; assay type: cell-based; conditions: Homo sapiens, U2OS
Description: Using our previously reported CME assay in U2OS cells, the ability of these compounds to block endocytosis was examined (Table 5 ).^[ [48], [49] ^]
CME was examined by a high‐throughput, quantitative assay for measuring transferrin (Tfn) uptake in U2OS osteosarcoma cells, based on methods described previously.^[ [48] ^]
Compounds were made up fresh from powder stock just prior to commencing the assay, and stock solutions were stored at −20 °C for several months.

[4] = Table 2, library 2, n = 3, triplicate, read-out: Dyn 1 IC50
[5] = Table 2, library 2, ELISA, average of duplicate measurements (n=2), read-out: NTD‐PPI IC50
[6] = Table 5, inhibition of transferrin‐red uptake in U2OS cells, '–'/NA = not active at 100 μM
[7] = Table 4, library 4, ELISA, average of duplicate measurements (n = 2), read-out: NTD‐PPI IC50
[8] = Table 5, ELISA, read-out: NTD‐PPI IC50

Row | SMILES | IC50 [1, 4] [µM] | IC50 [2, 5] [µM] | IC50 [3, 6] [µM] | IC50 [2, 7] [µM] | IC50 [2, 8] [µM] | IC50 ([2]; read-out: NTD‐PPI IC50 (ELISA)) [µM] | other results
1 | O=C1N=C(NS(=O)(=O)c2cccc3ccccc23)S/C1=C\c1cccc(Cl)c1Cl [compound 34, (Z)‐N‐(5‐(2,3‐dichlorobenzylidene)‐4‐oxo‐4,5‐dihydrothiazol‐2‐yl)naphthalene‐1‐sulfonamide] | > 100 | 26.1 |  |  |  |  | 
2 | O=C1N=C(NS(=O)(=O)c2cccc3ccccc23)S/C1=C\c1cc[nH]c1 [compound 45, (Z)‐N‐(5‐((1H‐pyrrol‐3‐yl)methylene)‐4‐oxo‐4,5‐dihydrothiazol‐2‐yl)naphthalene‐1‐sulfonamide] |  |  | ~108 | 3 | 3 | 33 | IC50 ([3]; U2OS cells): > 50 µM
3 | O=C1N=C(NS(=O)(=O)c2cccc3ccccc23)S/C1=C\c1ccc(Cl)o1 [compound 49, (Z)‐N‐(5‐((5‐chlorofuran‐2‐yl)methylene)‐4‐oxo‐4,5‐dihydrothiazol‐2‐yl)naphthalene‐1‐sulfonamide] |  |  | 52.6 ± 9.1 | 3.31 | 3.31 | 3.3 | IC50 ([3]; U2OS cells): > 50 µM
4 | O=C1N=C(NS(=O)(=O)c2cccc3ccccc23)S/C1=C\c1ccc(CO)o1 [compound 51, (Z)‐N‐(5‐((5‐(hydroxymethyl)furan‐2‐yl)methylene)‐4‐oxo‐4,5‐dihydrothiazol‐2‐yl)naphthalene‐1‐sulfonamide] |  |  | ~156 | 6.33 | 6.33 | 6.3 | NTD‐PPI activity relative to halogenated furans (49, 50) ([2]; ELISA, in words): threefold less active; IC50 ([3]; U2OS cells): > 50 µM
5 | CN1CCOc2cc(/C=C3\SC(NS(=O)(=O)c4cccc5ccccc45)=NC3=O)ccc21 [compound 53, (Z)‐N‐(5‐((4‐methyl‐3,4‐dihydro‐2H‐benzo[b][1,4]oxazin‐7‐yl)methylene)‐4‐oxo‐4,5‐dihydrothiazol‐2‐yl)naphthalene‐1‐sulfonamide] |  |  |  | 3.3 |  | < 5 | IC50 ([1]; Table 4, library 4, n = 1 or n = 2 as footnoted, read-out: Dynamin 1 IC50): 100.7 ± 1 µM; NTD‐PPI activity relative to 54 ([2]; ELISA, in words): threefold less active

More lines, main results first:

Row | IC50 [1, 4] [µM] | IC50 [2, 5] [µM] | IC50 [3, 6] [µM] | IC50 [2, 7] [µM] | IC50 [2, 8] [µM] | IC50 ([2]; read-out: NTD‐PPI IC50 (ELISA)) [µM] | SMILES | other results
6 | > 100 | 14.1 |  |  |  |  | COc1cc(/C=C2\SC(NS(=O)(=O)c3cccc4ccccc34)=NC2=O)cc(OC)c1OC [compound 33, (Z)‐N‐(4‐oxo‐5‐(3,4,5‐trimethoxybenzylidene)‐4,5‐dihydrothiazol‐2‐yl)naphthalene‐1‐sulfonamide] | 
7 | 66.8 | 1.5 |  |  |  |  | O=C1N=C(NS(=O)(=O)c2cccc3ccccc23)S/C1=C\c1ccc(Cl)cc1Cl [compound 35, (Z)‐N‐(5‐(2,4‐dichlorobenzylidene)‐4‐oxo‐4,5‐dihydrothiazol‐2‐yl)naphthalene‐1‐sulfonamide] | 
8 | 95.1 ± 7.4 | 4.1 |  |  |  |  | O=C1N=C(NS(=O)(=O)c2cccc3ccccc23)S/C1=C\c1ccc(Cl)c(Cl)c1 [compound 36, (Z)‐N‐(5‐(3,4‐dichlorobenzylidene)‐4‐oxo‐4,5‐dihydrothiazol‐2‐yl)naphthalene‐1‐sulfonamide] | 
9 |  |  | 36.4 ± 13.7 |  |  |  | O=C1N=C(NS(=O)(=O)c2cccc3ccccc23)S/C1=C\c1ccsc1 [compound 44, (Z)‐N‐(4‐oxo‐5‐(thiophen‐3‐ylmethylene)‐4,5‐dihydrothiazol‐2‐yl)naphthalene‐1‐sulfonamide] | 
10 |  |  | 31.5 ± 9.2 | 2.11 | 2.11 |  | O=C1N=C(NS(=O)(=O)c2cccc3ccccc23)S/C1=C\c1ccoc1 [compound 46, (Z)‐N‐(5‐(furan‐3‐ylmethylene)‐4‐oxo‐4,5‐dihydrothiazol‐2‐yl)naphthalene‐1‐sulfonamide] | 
11 |  |  | 42.3 ± 25.7 |  |  |  | O=C1N=C(NS(=O)(=O)c2cccc3ccccc23)S/C1=C\c1ccc(Br)o1 [compound 50, (Z)‐N‐(5‐((5‐bromofuran‐2‐yl)methylene)‐4‐oxo‐4,5‐dihydrothiazol‐2‐yl)naphthalene‐1‐sulfonamide] | 
